Assay results taken from the NIST ThermoML archive (doi:10.1021/je700406p).

Assay: wn = mass fraction of the nth substance listed
Settings: Liquid, Vibrating tube method

CC(C)(N)CO [2-amino-2-methylpropan-1-ol] + O
Settings	mass density [kg/m3]
313.13 K, 16000 kPa, w1 = 0.1997	995.5
313.13 K, 16989 kPa, w1 = 0.2821	994.9
313.13 K, 16992 kPa, w1 = 0.4976	984.6
313.13 K, 16994 kPa, w1 = 0.4002	991.5
313.13 K, 17001 kPa, w1 = 0.1997	995.9
313.13 K, 17985 kPa, w1 = 0.4976	985
313.13 K, 17988 kPa, w1 = 0.2821	995.3
313.13 K, 17989 kPa, w1 = 0.4002	991.9
313.13 K, 18002 kPa, w1 = 0.1997	996.3
313.13 K, 18987 kPa, w1 = 0.2821	995.6
313.13 K, 18990 kPa, w1 = 0.4002	992.3
313.13 K, 18990 kPa, w1 = 0.4976	985.4
313.13 K, 19000 kPa, w1 = 0.1997	996.7
313.13 K, 19992 kPa, w1 = 0.4002	992.7
313.13 K, 19992 kPa, w1 = 0.4976	985.8
313.13 K, 19996 kPa, w1 = 0.2821	996
313.13 K, 20030 kPa, w1 = 0.1997	997.1
313.13 K, 20495 kPa, w1 = 0.4976	986
313.13 K, 20691 kPa, w1 = 0.4002	993
313.13 K, 20955 kPa, w1 = 0.2821	996.4
313.13 K, 21004 kPa, w1 = 0.1997	997.4
313.13 K, 22004 kPa, w1 = 0.1997	997.8
313.13 K, 23000 kPa, w1 = 0.1997	998.2
313.13 K, 24004 kPa, w1 = 0.1997	998.5
323.08 K, 1026 kPa, w1 = 0.2821	982.8
323.08 K, 2026 kPa, w1 = 0.2821	983.2
323.08 K, 2996 kPa, w1 = 0.2821	983.5
323.08 K, 4009 kPa, w1 = 0.2821	983.9
323.08 K, 5006 kPa, w1 = 0.2821	984.3
323.08 K, 6002 kPa, w1 = 0.2821	984.7
323.08 K, 6993 kPa, w1 = 0.2821	985.1
323.08 K, 7994 kPa, w1 = 0.2821	985.5
323.08 K, 9012 kPa, w1 = 0.2821	985.9
323.08 K, 9998 kPa, w1 = 0.2821	986.3
323.08 K, 11009 kPa, w1 = 0.2821	986.6
323.08 K, 11995 kPa, w1 = 0.2821	987
323.08 K, 12991 kPa, w1 = 0.2821	987.4
323.08 K, 14001 kPa, w1 = 0.2821	987.8
323.08 K, 14989 kPa, w1 = 0.2821	988.2
323.08 K, 15999 kPa, w1 = 0.2821	988.5
323.08 K, 16987 kPa, w1 = 0.2821	988.9
323.08 K, 17980 kPa, w1 = 0.2821	989.3
323.08 K, 18996 kPa, w1 = 0.2821	989.7
323.08 K, 19986 kPa, w1 = 0.2821	990.1
323.08 K, 20987 kPa, w1 = 0.2821	990.4
323.09 K, 1002 kPa, w1 = 0.4976	970.1
323.09 K, 1995 kPa, w1 = 0.4976	970.5
323.09 K, 3001 kPa, w1 = 0.4976	971
323.09 K, 4009 kPa, w1 = 0.4976	971.4
323.09 K, 5001 kPa, w1 = 0.4976	971.8
323.09 K, 5995 kPa, w1 = 0.4976	972.2
323.09 K, 7011 kPa, w1 = 0.4976	972.6
323.09 K, 7990 kPa, w1 = 0.4976	973
323.09 K, 9002 kPa, w1 = 0.4976	973.5
323.09 K, 9974 kPa, w1 = 0.4976	973.9
323.09 K, 10992 kPa, w1 = 0.4976	974.3
323.09 K, 11993 kPa, w1 = 0.4976	974.7
323.09 K, 12991 kPa, w1 = 0.4976	975.1
323.09 K, 13986 kPa, w1 = 0.4976	975.6
323.09 K, 14991 kPa, w1 = 0.4976	976
323.09 K, 15999 kPa, w1 = 0.4976	976.4
323.09 K, 16994 kPa, w1 = 0.4976	976.8
323.09 K, 18003 kPa, w1 = 0.4976	977.2
323.09 K, 18986 kPa, w1 = 0.4976	977.6
